Source: the NIST ThermoML archive (doi:10.1016/j.fluid.2005.01.007)
± gives the expanded uncertainty stated by the source.

What was measured:
[1] = refractive index (Na D-line) (dimensionless); conditions: 298.15 K; 101.33 kPa; Liquid; Standard Abbe refractometry
[2] = Liquid; for mass density: 298.15 K, 101.33 kPa

SMILES	refractive index [1]	mass density [2]	vapor or sublimation pressure ([2]; 351.44 K)	vapor or sublimation pressure ([2]; 329.26 K)	vapor or sublimation pressure ([2]; 372.33 K)
CCO [ethanol]	1.35926 ± 0.00072	785.09 ± 0.62 kg/m3	101.32 ± 0.55 kPa		
CC(C)=O [acetone]	1.35597 ± 0.00072	785.47 ± 0.61 kg/m3		101.32 ± 0.55 kPa	
CC(C)CC(C)(C)C [2,2,4-trimethylpentane]	1.38887 ± 0.00072	687.72 ± 0.81 kg/m3			101.32 ± 0.55 kPa
